Assay results reported in patent publication US10717734B2, “Indole and azaindole haloallylamine derivative inhibitors of lysyl oxidases and uses thereof” (PHARMAXIS LTD., priority 2016, dated 2020).
Counter-ions that a name gives are not always drawn.

How the values were obtained:
Type in all cases: biochemical
Bovine LOX = Bovine LOX (Bos taurus (Bovine), UniProt P33072); assay: LOX inhibition, peroxidase-coupled Amplex Red amine oxidase assay; conditions: 30 min preincubation at 37° C., putrescine substrate
Excerpt: (§1) Method to Determine the Ability of Compounds of the Invention to Inhibit LOX and LOXL1-4 from Different Sources
Lysyl oxidase (LOX) is an extracellular copper dependent enzyme which oxidizes peptidyl lysine and hydroxylysine residues in collagen and lysine residues in elastin to produce peptidyl alpha-aminoadipic-delta-semialdehydes. […] There are five LOX family members; these are LOX, LOXL1, LOXL2, LOXL3 and LOXL4. LOX and LOXL family members can be acquired as recombinant active proteins from commercial sources, or extracted from animal tissues like bovine aorta, tendons, pig skin; or prepared from cell cultures. The inhibitory effects of the compounds of the present invention were tested against the given LOX-LOXL preparation using a high-throughput coupled colorimetric method (Holt A. and Palcic M., A peroxidase-coupled continuous absorbance plate-reader assay for flavin monoamine oxidases, copper-containing amine oxidases and related enzymes. Nat. Protoc. 2006; 1: 2498-2505). The assay was developed using either 384 or 96 well format. Briefly, in a standard 384 well plate assay 25 μL of a dilution of any of the isoenzymes and orthologues in 1.2 M urea, 50 mM sodium borate buffer (pH 8.2) were added into each well in the presence of 1 μM mofegiline and 0.5 mM pargyline (to inhibit SSAO and MAO-B and MAO-A, respectively). […] Twenty five μL of a reaction mixture containing twice the KM concentration of putrescine (Sigma Aldrich, e.g. 20 mM for LOX, or 10 mM for LOXL2 and LOXL3), 120 μM Amplex Red (Sigma Aldrich) and 1.5 U/mL horseradish peroxidase (Sigma Aldrich) prepared in 1.2 M urea, 50 mM sodium borate buffer (pH 8.2) were then added to the corresponding wells. The above volumes were doubled in the case of 96 wells plate. The fluorescence (RFU) was read every 2.5 min for 30 min at a range of temperatures from 37° to 45° C., excitation 565 nm and emission 590 (Optima; BMG labtech). The slope of the kinetics for each well was calculated using MARS data analysis software (BMG labtech) and this value was used to deduce the IC50 value (Dotmatics).

Human LOXL2 = Human LOXL2 (Homo sapiens (Human), UniProt Q9Y4K0); assay: LOXL2 inhibition, peroxidase-coupled Amplex Red amine oxidase assay; conditions: 30 min preincubation at 37° C., putrescine substrate
Excerpt: as §1
Lysyl oxidase (LOX) is an extracellular copper dependent enzyme which oxidizes peptidyl lysine and hydroxylysine residues in collagen and lysine residues in elastin to produce peptidyl alpha-aminoadipic-delta-semialdehydes. […] There are five LOX family members; these are LOX, LOXL1, LOXL2, LOXL3 and LOXL4. LOX and LOXL family members can be acquired as recombinant active proteins from commercial sources, or extracted from animal tissues like bovine aorta, tendons, pig skin; or prepared from cell cultures. The inhibitory effects of the compounds of the present invention were tested against the given LOX-LOXL preparation using a high-throughput coupled colorimetric method (Holt A. and Palcic M., A peroxidase-coupled continuous absorbance plate-reader assay for flavin monoamine oxidases, copper-containing amine oxidases and related enzymes. Nat. Protoc. 2006; 1: 2498-2505). The assay was developed using either 384 or 96 well format. Briefly, in a standard 384 well plate assay 25 μL of a dilution of any of the isoenzymes and orthologues in 1.2 M urea, 50 mM sodium borate buffer (pH 8.2) were added into each well in the presence of 1 μM mofegiline and 0.5 mM pargyline (to inhibit SSAO and MAO-B and MAO-A, respectively). Test compounds were dissolved in DMSO and tested in a Concentration Response Curve (CRC) with 11 data points, typically in the micromolar or nanomolar range after incubation with the enzyme for 30 min at 37° C. Twenty five μL of a reaction mixture containing twice the KM concentration of putrescine (Sigma Aldrich, e.g. 20 mM for LOX, or 10 mM for LOXL2 and LOXL3), 120 μM Amplex Red (Sigma Aldrich) and 1.5 U/mL horseradish peroxidase (Sigma Aldrich) prepared in 1.2 M urea, 50 mM sodium borate buffer (pH 8.2) were then added to the corresponding wells. The above volumes were doubled in the case of 96 wells plate. The fluorescence (RFU) was read every 2.5 min for 30 min at a range of temperatures from 37° to 45° C., excitation 565 nm and emission 590 (Optima; BMG labtech). The slope of the kinetics for each well was calculated using MARS data analysis software (BMG labtech) and this value was used to deduce the IC50 value (Dotmatics).

[1] = target: Human recombinant SSAO/VAP-1 (Homo sapiens (Human), UniProt Q16853); assay: Human recombinant SSAO/VAP-1 amine oxidase inhibition; conditions: 30 min preincubation at 37° C., 600 μM benzylamine
Method: Method to Determine the Ability of Compounds of Formula I to Inhibit Human Recombinant SSAO/VAP-1
Human recombinant SSAO/VAP-1 amine oxidase activity was determined using the coupled colorimetric method as described for monoamine oxidase, copper-containing amine oxidases and related enzymes (Holt A. and Palcic M., A peroxidase-coupled continuous absorbance plate-reader assay for flavin monoamine oxidases, copper-containing amine oxidases and related enzymes. Nat Protoc 2006; 1: 2498-2505). Briefly, a cloned cDNA template corresponding to residues 34-763 of human SSAO/VAP-1, and incorporating a mouse Ig kappa (κ) signal sequence, N-terminal flag epitope tag and tobacco etch virus (TEV) cleavage site, was assembled in a mammalian expression vector (pLO-CMV) by Geneart AG. This vector containing human SSAO/VAP-1 residues was transfected into CHO-K1 glycosylation mutant cell line, Lec 8. A clone stably expressing human SSAO/VAP-1 was isolated and cultured in large scale. Active human SSAO/VAP-1 was purified and recovered using immunoaffinity chromatography. This was used as the source for SSAO/VAP-1 activity. A high-throughput colorimetric assay was developed using either 96 or 384 well format. Briefly, in a standard 96 well plate assay 50 μL of purified human SSAO/VAP-1 (0.25 μg/mL) in 0.1 M sodium phosphate buffer (pH 7.4) was added into each well. Test compounds were dissolved in DMSO and tested in a Concentration Response Curve (CRC) with 4-11 data points, typically in the micromolar or nanomolar range after incubation with human SSAO/VAP-1 for 30 min at 37° C. After 30 min incubation, 50 μL of the reaction mixture containing 600 μM benzylamine (Sigma Aldrich), 120 μM Amplex Red (Sigma Aldrich) and 1.5 U/mL horseradish peroxidase (Sigma Aldrich) prepared in 0.1 M sodium phosphate buffer (pH 7.4) were added to the corresponding well. The fluorescence unit (RFU) was read every 2.5 min for 30 min at 37° C. excitation 565 nm and emission 590 (Optima; BMG labtech). The slope of the kinetics for each well was calculated using MARS data analysis software (BMG labtech) and this value was used to deduce the IC50 value (Dotmatics).

Recombinant human MAO-B = Recombinant human MAO-B (Homo sapiens (Human), UniProt P27338); assay: Human recombinant MAO-B inhibition; conditions: benzylamine 100 μM
Method: Method to Determine the Ability of Compounds of Formula I to Inhibit Human Recombinant MAO-B
The specificity of the compounds of this invention was tested by determining their ability to inhibit MAO-B activities in vitro. Recombinant human MAO-B (0.06 mg/mL; Sigma Aldrich) was used as source of MAO-B enzyme activities. The assay was performed in a similar way as for human SSAO/VAP-1 (Example 36) except, the substrate benzylamine was used at 100 μM.

Sequence of Recombinant human MAO-B (P27338 whole entry): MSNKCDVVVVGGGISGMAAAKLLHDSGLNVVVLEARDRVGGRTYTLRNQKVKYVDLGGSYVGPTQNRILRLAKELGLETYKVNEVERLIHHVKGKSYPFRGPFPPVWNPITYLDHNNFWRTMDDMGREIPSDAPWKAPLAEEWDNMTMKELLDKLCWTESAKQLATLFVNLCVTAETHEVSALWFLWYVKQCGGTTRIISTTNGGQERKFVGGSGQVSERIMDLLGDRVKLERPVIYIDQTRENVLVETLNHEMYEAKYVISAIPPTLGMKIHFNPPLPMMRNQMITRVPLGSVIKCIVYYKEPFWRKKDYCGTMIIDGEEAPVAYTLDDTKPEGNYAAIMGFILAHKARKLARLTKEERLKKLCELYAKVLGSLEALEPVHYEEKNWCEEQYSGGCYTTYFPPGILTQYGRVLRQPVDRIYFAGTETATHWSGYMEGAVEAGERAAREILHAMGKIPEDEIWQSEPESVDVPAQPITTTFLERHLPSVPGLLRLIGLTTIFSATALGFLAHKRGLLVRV
Sequence of Human recombinant SSAO/VAP-1 (Q16853 34-763): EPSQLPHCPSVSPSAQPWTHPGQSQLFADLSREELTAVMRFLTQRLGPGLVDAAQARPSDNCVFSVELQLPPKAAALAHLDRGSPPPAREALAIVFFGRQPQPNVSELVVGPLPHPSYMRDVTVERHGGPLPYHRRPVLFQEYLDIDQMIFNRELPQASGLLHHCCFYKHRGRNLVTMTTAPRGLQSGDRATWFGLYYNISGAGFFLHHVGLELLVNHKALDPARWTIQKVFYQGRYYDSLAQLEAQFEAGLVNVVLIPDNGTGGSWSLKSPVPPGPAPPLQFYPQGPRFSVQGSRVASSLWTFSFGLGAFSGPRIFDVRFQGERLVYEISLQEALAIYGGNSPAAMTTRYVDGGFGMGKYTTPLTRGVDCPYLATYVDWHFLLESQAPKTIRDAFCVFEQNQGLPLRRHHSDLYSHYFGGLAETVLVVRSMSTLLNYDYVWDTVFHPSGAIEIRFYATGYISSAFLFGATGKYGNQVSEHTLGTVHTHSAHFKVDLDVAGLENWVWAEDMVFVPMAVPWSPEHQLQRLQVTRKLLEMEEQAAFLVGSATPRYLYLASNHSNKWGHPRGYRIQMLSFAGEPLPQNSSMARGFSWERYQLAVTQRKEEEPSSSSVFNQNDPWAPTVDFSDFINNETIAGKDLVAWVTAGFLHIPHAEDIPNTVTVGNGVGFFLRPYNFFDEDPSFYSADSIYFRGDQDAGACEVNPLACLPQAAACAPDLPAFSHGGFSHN
Sequence of Human LOXL2 (Q9Y4K0 26-774): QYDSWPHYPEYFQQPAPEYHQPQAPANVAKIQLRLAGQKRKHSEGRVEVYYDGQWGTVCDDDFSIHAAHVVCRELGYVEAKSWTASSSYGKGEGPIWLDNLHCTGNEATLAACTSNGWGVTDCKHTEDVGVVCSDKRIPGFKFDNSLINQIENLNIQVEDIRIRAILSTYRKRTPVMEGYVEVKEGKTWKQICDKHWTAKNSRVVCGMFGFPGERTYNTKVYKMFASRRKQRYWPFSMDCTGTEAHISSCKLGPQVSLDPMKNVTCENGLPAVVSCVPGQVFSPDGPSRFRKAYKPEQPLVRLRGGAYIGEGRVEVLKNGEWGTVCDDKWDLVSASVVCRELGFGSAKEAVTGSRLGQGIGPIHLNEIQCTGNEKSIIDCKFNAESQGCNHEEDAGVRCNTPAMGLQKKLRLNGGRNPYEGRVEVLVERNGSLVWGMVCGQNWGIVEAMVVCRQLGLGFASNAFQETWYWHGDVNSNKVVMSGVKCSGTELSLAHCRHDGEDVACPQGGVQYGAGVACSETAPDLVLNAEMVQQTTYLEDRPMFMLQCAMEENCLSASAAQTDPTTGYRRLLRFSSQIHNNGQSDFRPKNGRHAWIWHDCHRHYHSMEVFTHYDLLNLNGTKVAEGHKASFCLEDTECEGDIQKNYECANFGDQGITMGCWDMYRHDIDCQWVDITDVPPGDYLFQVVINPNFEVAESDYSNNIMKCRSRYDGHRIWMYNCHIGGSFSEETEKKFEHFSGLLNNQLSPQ
Sequence of Bovine LOX (P33072 170-418): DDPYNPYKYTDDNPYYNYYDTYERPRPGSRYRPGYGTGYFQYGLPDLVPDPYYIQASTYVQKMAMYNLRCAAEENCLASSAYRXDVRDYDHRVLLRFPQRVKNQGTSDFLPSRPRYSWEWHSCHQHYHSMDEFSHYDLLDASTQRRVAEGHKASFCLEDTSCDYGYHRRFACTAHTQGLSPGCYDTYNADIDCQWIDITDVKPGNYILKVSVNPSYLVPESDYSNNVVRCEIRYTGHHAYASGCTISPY

Row | Structure (SMILES) | IC50 (Bovine LOX) [µM] | IC50 (Human LOXL2) [µM] | IC50 [1] [µM] | IC50 (Recombinant human MAO-B) [µM]
1 | Cc1ccc2c(n1)c(Cc1ccc(S(C)(=O)=O)cc1)c(C)n2C/C(F)=C/CN [Compound 12, (Z)-4-(2,5-dimethyl-3-(4-(methylsulfonyl)benzyl)-1H-pyrrolo[3,2-b]pyridin-1-yl)-3-fluorobut-2-en-1-amine dihydrochloride] | > 0.3 | < 0.3 | > 3 | > 3
2 | Cc1ccc2c(n1)c(Cc1ccc(S(C)(=O)=O)nc1)c(C)n2C/C(F)=C/CN [Compound 13, (Z)-4-(2,5-dimethyl-3-((6-(methylsulfonyl)pyridin-3-yl)methyl)-1H-pyrrolo[3,2-b]pyridin-1-yl)-3-fluorobut-2-en-1-amine trihydrochloride] | > 0.3 | < 0.3 | > 3 | > 3
3 | Cc1ccc2c(n1)c(Cc1ccc(S(C)(=O)=O)cn1)c(C)n2C/C(F)=C/CN [Compound 14, (Z)-4-(2,5-dimethyl-3-((5-(methylsulfonyl)pyridin-2-yl)methyl)-1H-pyrrolo[3,2-b]pyridin-1-yl)-3-fluorobut-2-en-1-amine trihydrochloride] | > 0.3 | < 0.3 | > 3 | > 3
4 | Cc1ccc2c(n1)c(Cc1ccc(S(=O)(=O)N(C)C)cn1)c(C)n2C/C(F)=C/CN [Compound 15, (Z)-6-((1-(4-amino-2-fluorobut-2-en-1-yl)-2,5-dimethyl-1H-pyrrolo[3,2-b]pyridin-3-yl)methyl)-N,N-dimethylpyridine-3-sulfonamide trihydrochloride] | > 0.3 | < 0.3 | > 3 | > 3
5 | Cc1ccc2c(n1)c(Cc1ccc(S(=O)(=O)N(C)C)nc1)c(C)n2C/C(F)=C/CN [Compound 16, (Z)-5-((1-(4-amino-2-fluorobut-2-en-1-yl)-2,5-dimethyl-1H-pyrrolo[3,2-b]pyridin-3-yl)methyl)-N,N-dimethylpyridine-2-sulfonamide trihydrochloride] | > 0.3 | < 0.3 | > 3 | > 3
6 | Cc1ccc2c(n1)c(Cc1cccc(S(C)(=O)=O)c1)c(C)n2C/C(F)=C/CN [Compound 17, (Z)-4-(2,5-dimethyl-3-(3-(methylsulfonyl)benzyl)-1H-pyrrolo[3,2-b]pyridin-1-yl)-3-fluorobut-2-en-1-amine dihydrochloride] | > 0.3 | < 0.3 | > 3 | > 3
7 | Cc1c(Cc2cccc(S(=O)(=O)N(C)C)c2)c2ncccc2n1C/C(F)=C/CN [Compound 18, dihydrochloride] | > 0.3 | < 0.3 | > 3 | > 3
8 | Cc1cc2c(nc1O)c(Cc1ccc(S(=O)(=O)N(C)C)cc1)c(C)n2C/C(F)=C/CN [Compound 19, (Z)-4-((1-(4-amino-2-fluorobut-2-en-1-yl)-5-hydroxy-2,6-dimethyl-1H-pyrrolo[3,2-b]pyridin-3-yl)methyl)-N,N-dimethylbenzenesulfonamide dihydrochloride] | > 0.3 | < 0.3 | > 3 | > 3
9 | Cc1c(Cc2ccc(S(C)(=O)=O)cc2Cl)c2ncccc2n1C/C(F)=C/CN [Compound 20, (Z)-4-(3-(2-chloro-4-(methylsulfonyl)benzyl)-2-methyl-1H-pyrrolo[3,2-b]pyridin-1-yl)-3-fluorobut-2-en-1-amine dihydrochloride] | > 0.3 | < 0.3 | > 3 | > 3
10 | Cc1c(Oc2ccc(S(=O)(=O)N(C)C)cc2)c2ccccc2n1C/C(F)=C/CN [Compound 21, (Z)-4-((1-(4-amino-2-fluorobut-2-en-1-yl)-2-methyl-1H-indol-3-yl)oxy)-N,N-dimethylbenzene-sulfonamide hydrochloride] | > 0.3 | < 0.3 | > 3 | > 3
11 | Cc1c(Cc2ccc(S(=O)(=O)N(C)C)cc2)c2nc(F)ccc2n1C/C(F)=C/CN [Compound 23, (Z)-4-((1-(4-amino-2-fluorobut-2-en-1-yl)-5-fluoro-2-methyl-1H-pyrrolo[3,2-b]pyridin-3-yl)methyl)-N,N-dimethylbenzenesulfonamide dihydrochloride] | > 0.3 | < 0.3 | > 3 | > 3
12 | Cc1c(Cc2ccc(S(=O)(=O)N(C)C)cc2)c2ncc(F)cc2n1C/C(F)=C/CN [Compound 24, (Z)-4-((1-(4-amino-2-fluorobut-2-en-1-yl)-6-fluoro-2-methyl-1H-pyrrolo[3,2-b]pyridin-3-yl)methyl)-N,N-dimethylbenzenesulfonamide dihydrochloride] | > 0.3 | < 0.3 | > 3 | > 3
13 | CN(C)S(=O)(=O)c1ccc(Cc2c(C(C)(C)O)n(C/C(F)=C/CN)c3cccnc23)cc1 [Compound 25, (Z)-4-((1-(4-amino-2-fluorobut-2-en-1-yl)-2-(2-hydroxypropan-2-yl)-1H-pyrrolo[3,2-b]pyridin-3-yl)methyl)-N,N-dimethylbenzenesulfonamide dihydrochloride] | > 0.3 | < 0.3 | > 3 | > 3
